Measurements from patent US20210045385A1, “PYRIDAZINONE-SUBSTITUTED KETOXIMES AS HERBICIDES” (FMC Corporation, priority 2018, published 2021).

Assays:
Format in all cases: in vivo
[1] = test system: Italian ryegrass (Lolium multiflorum); experiment: Test A preemergence, visual plant response rating; settings: for Ryegrass, Italian plant response rating: 125 g ai/ha, preemergence, 0 to 100 scale, 0 no effect, 100 complete control; for Ryegrass, Italian plant response rating (0 to 100 scale): 500 g ai/ha Preemergence, approx. 10 days
Method in brief: (§1)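 Ratings use a 0–100 visual scale (100 = complete control) against untreated controls, scored about 10 days after greenhouse treatment. Test chemicals were formulated in surfactant-containing non-phytotoxic solvent and applied either as soil spray after planting (preemergence) or onto one- to two-leaf, 2–10 cm plants (postemergence).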

[2] = test system: barnyardgrass (Echinochloa crus-galli); experiment: Test A preemergence, visual plant response rating; settings: for Barnyardgrass plant response rating: 125 g ai/ha, preemergence, 0 to 100 scale, 0 no effect, 100 complete control; for Barnyardgrass plant response rating (0 to 100 scale): 500 g ai/ha Preemergence, approx. 10 days
Method in brief: as §1

[3] = test system: foxtail, giant (giant foxtail, Setaria faberii); experiment: Test A preemergence, visual plant response rating; settings: for Foxtail, Giant plant response rating: 125 g ai/ha, preemergence, 0 to 100 scale, 0 no effect, 100 complete control; for Foxtail, Giant plant response rating (0 to 100 scale): 500 g ai/ha Preemergence, approx. 10 days
Method in brief: as §1

[4] = test system: kochia (Kochia scoparia); experiment: Test A preemergence, visual plant response rating; settings: for Kochia plant response rating: 125 g ai/ha, preemergence, 0 to 100 scale, 0 no effect, 100 complete control; for Kochia plant response rating (0 to 100 scale): 500 g ai/ha Preemergence, approx. 10 days
Method in brief: as §1

[5] = test system: pigweed (Amaranthus retroflexus); experiment: Test A preemergence, visual plant response rating; settings: for Pigweed plant response rating: 125 g ai/ha, preemergence, 0 to 100 scale, 0 no effect, 100 complete control; for Pigweed plant response rating (0 to 100 scale): 500 g ai/ha Preemergence, approx. 10 days
Method in brief: as §1

[6] = test system: ragweed (common ragweed, Ambrosia elatior); experiment: Test A preemergence, visual plant response rating; settings: for Ragweed plant response rating: 125 g ai/ha, preemergence, 0 to 100 scale, 0 no effect, 100 complete control; for Ragweed plant response rating (0 to 100 scale): 500 g ai/ha Preemergence, approx. 10 days
Method in brief: as §1

[7] = test system: Italian ryegrass (Lolium multiflorum); experiment: Test A postemergence, visual plant response rating; settings: for Ryegrass, Italian plant response rating (0 to 100 scale): 500 g ai/ha, postemergence, 0 is no effect, 100 is complete control; for Ryegrass, Italian plant response rating: Postemergence, 125 g ai/ha, 0 to 100 scale (0 no effect, 100 complete control)
Method in brief: as §1

[8] = test system: barnyardgrass (Echinochloa crus-galli); experiment: Test A postemergence, visual plant response rating; settings: for Barnyardgrass plant response rating (0 to 100 scale): 500 g ai/ha, postemergence, 0 is no effect, 100 is complete control; for Barnyardgrass plant response rating: Postemergence, 125 g ai/ha, 0 to 100 scale (0 no effect, 100 complete control)
Method in brief: as §1

[9] = test system: blackgrass (Alopecurus myosuroides); experiment: Test A postemergence, visual plant response rating; settings: for Blackgrass plant response rating (0 to 100 scale): 500 g ai/ha, postemergence, 0 is no effect, 100 is complete control; for Blackgrass plant response rating: Postemergence, 125 g ai/ha, 0 to 100 scale (0 no effect, 100 complete control)
Method in brief: as §1

[10] = test system: corn (Zea mays); experiment: Test A postemergence, visual plant response rating; settings: for Corn plant response rating (0 to 100 scale): 500 g ai/ha, postemergence, 0 is no effect, 100 is complete control; for Corn plant response rating: Postemergence, 125 g ai/ha, 0 to 100 scale (0 no effect, 100 complete control)
Method in brief: as §1

[11] = test system: foxtail, giant (giant foxtail, Setaria faberii); experiment: Test A postemergence, visual plant response rating; settings: for Foxtail, Giant plant response rating (0 to 100 scale): 500 g ai/ha, postemergence, 0 is no effect, 100 is complete control; for Foxtail, Giant plant response rating: Postemergence, 125 g ai/ha, 0 to 100 scale (0 no effect, 100 complete control)
Method in brief: as §1

[12] = test system: galium (catchweed bedstraw, Galium aparine); experiment: Test A postemergence, visual plant response rating; settings: for Galium plant response rating (0 to 100 scale): 500 g ai/ha, postemergence, 0 is no effect, 100 is complete control; for Galium plant response rating: Postemergence, 125 g ai/ha, 0 to 100 scale (0 no effect, 100 complete control)
Method in brief: as §1

[13] = test system: kochia (Kochia scoparia); experiment: Test A postemergence, visual plant response rating; settings: for Kochia plant response rating (0 to 100 scale): 500 g ai/ha, postemergence, 0 is no effect, 100 is complete control; for Kochia plant response rating: Postemergence, 125 g ai/ha, 0 to 100 scale (0 no effect, 100 complete control)
Method in brief: as §1

[14] = test system: pigweed (Amaranthus retroflexus); experiment: Test A postemergence, visual plant response rating; settings: for Pigweed plant response rating (0 to 100 scale): 500 g ai/ha, postemergence, 0 is no effect, 100 is complete control; for Pigweed plant response rating: Postemergence, 125 g ai/ha, 0 to 100 scale (0 no effect, 100 complete control)
Method in brief: as §1

[15] = test system: ragweed (common ragweed, Ambrosia elatior); experiment: Test A postemergence, visual plant response rating; settings: for Ragweed plant response rating (0 to 100 scale): 500 g ai/ha, postemergence, 0 is no effect, 100 is complete control; for Ragweed plant response rating: Postemergence, 125 g ai/ha, 0 to 100 scale (0 no effect, 100 complete control)
Method in brief: as §1

[16] = test system: wheat (Triticum aestivum); experiment: Test A postemergence, visual plant response rating; settings: for Wheat plant response rating (0 to 100 scale): 500 g ai/ha, postemergence, 0 is no effect, 100 is complete control; for Wheat plant response rating: Postemergence, 125 g ai/ha, 0 to 100 scale (0 no effect, 100 complete control)
Method in brief: as §1

[17] = test system: barnyardgrass (Echinochloa crus-galli); experiment: Test B flooded paddy test, visual plant response rating; settings: 250 g ai/ha, Flood, applied to paddy water, 2-leaf stage, evaluated after 13 to 15 days
Method in brief: (§2)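 Compounds added straight into paddy water of pots flooded to 3 cm, with 2-leaf-stage plants of the four species; water level held throughout.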

[18] = test system: ducksalad (Heteranhera limosa); experiment: as above; settings: 250 g ai/ha, Flood, applied to paddy water, 2-leaf stage, evaluated after 13 to 15 days
Method in brief: as §2

[19] = test system: rice (Oryza sativa); experiment: as above; settings: 250 g ai/ha, Flood, applied to paddy water, 2-leaf stage, evaluated after 13 to 15 days
Method in brief: as §2

[20] = test system: sedge, umbrella (small-flower umbrella sedge, Cyperus difformis); experiment: as above; settings: 250 g ai/ha, Flood, applied to paddy water, 2-leaf stage, evaluated after 13 to 15 days
Method in brief: as §2

| Compound | Ryegrass, Italian plant response rating [1] | Ryegrass, Italian plant response rating (0 to 100 scale) [1] | Barnyardgrass plant response rating [2] | Barnyardgrass plant response rating (0 to 100 scale) [2] | Foxtail, Giant plant response rating [3] | Foxtail, Giant plant response rating (0 to 100 scale) [3] | Kochia plant response rating [4] | Kochia plant response rating (0 to 100 scale) [4] | Pigweed plant response rating [5] | Pigweed plant response rating (0 to 100 scale) [5] | Ragweed plant response rating [6] | Ragweed plant response rating (0 to 100 scale) [6] | Ryegrass, Italian plant response rating (0 to 100 scale) [7] | Ryegrass, Italian plant response rating [7] | Barnyardgrass plant response rating (0 to 100 scale) [8] | Barnyardgrass plant response rating [8] | Blackgrass plant response rating (0 to 100 scale) [9] | Blackgrass plant response rating [9] | Corn plant response rating (0 to 100 scale) [10] | Corn plant response rating [10] | further results |
| --- | --- | --- | --- | --- | --- | --- | --- | --- | --- | --- | --- | --- | --- | --- | --- | --- | --- | --- | --- | --- | --- |
| CO/N=C(\c1ccccc1C(C)C)c1c(O)c(C)nn(C)c1=O [Compound 94] | 50 | 90 | 10 | 50 | 20 | 60 | 0 | 10 | 10 | 70 | 10 | 70 | 80 | 30 | 30 | 20 | 80 | 20 | 20 | 10 | Foxtail, Giant plant response rating (0 to 100 scale) [11]: 70; Foxtail, Giant plant response rating [11]: 40; Galium plant response rating (0 to 100 scale) [12]: 70; Galium plant response rating [12]: 60; Kochia plant response rating (0 to 100 scale) [13]: 60; Kochia plant response rating [13]: 20; Pigweed plant response rating (0 to 100 scale) [14]: 80; Pigweed plant response rating [14]: 50; Ragweed plant response rating (0 to 100 scale) [15]: 70; Ragweed plant response rating [15]: 50; Wheat plant response rating (0 to 100 scale) [16]: 40; Wheat plant response rating [16]: 0; Plant response rating, Barnyardgrass (0 to 100 scale, 0 is no effect, 100 is complete control) [17]: 0; Plant response rating, Ducksalad (0 to 100 scale, 0 is no effect, 100 is complete control) [18]: 0; Plant response rating, Rice (0 to 100 scale, 0 is no effect, 100 is complete control) [19]: 0; Plant response rating, Sedge, Umbrella (0 to 100 scale, 0 is no effect, 100 is complete control) [20]: 0 |
| CO/N=C(/c1cc(Cl)ccc1C(F)(F)F)c1c(O)c(C)nn(C)c1=O [Compound 95] | 90 | 100 | 60 | 60 | 80 | 100 | 10 | 70 | 50 | 100 | 30 | 100 | 100 | 80 | 60 | 50 | 100 | 60 | 40 | 0 | Foxtail, Giant plant response rating (0 to 100 scale) [11]: 80; Foxtail, Giant plant response rating [11]: 60; Galium plant response rating (0 to 100 scale) [12]: 90; Galium plant response rating [12]: 80; Kochia plant response rating (0 to 100 scale) [13]: 80; Kochia plant response rating [13]: 60; Pigweed plant response rating (0 to 100 scale) [14]: 80; Pigweed plant response rating [14]: 70; Ragweed plant response rating (0 to 100 scale) [15]: 90; Ragweed plant response rating [15]: 80; Wheat plant response rating (0 to 100 scale) [16]: 70; Wheat plant response rating [16]: 40; Plant response rating, Barnyardgrass (0 to 100 scale, 0 is no effect, 100 is complete control) [17]: 0; Plant response rating, Ducksalad (0 to 100 scale, 0 is no effect, 100 is complete control) [18]: 0; Plant response rating, Rice (0 to 100 scale, 0 is no effect, 100 is complete control) [19]: 0; Plant response rating, Sedge, Umbrella (0 to 100 scale, 0 is no effect, 100 is complete control) [20]: 0 |
| CON=C(c1c(O)c(C)nn(C)c1=O)c1cccc2cc(Br)ccc12 [Compound 96] | 30 | 100 | 60 | 80 | 70 | 100 | 20 | 100 | 80 | 100 | 90 | 100 | 80 | 80 | 30 | 20 | 100 | 90 | 30 | 10 | Foxtail, Giant plant response rating (0 to 100 scale) [11]: 70; Foxtail, Giant plant response rating [11]: 20; Galium plant response rating (0 to 100 scale) [12]: 90; Galium plant response rating [12]: 90; Kochia plant response rating (0 to 100 scale) [13]: 80; Kochia plant response rating [13]: 60; Pigweed plant response rating (0 to 100 scale) [14]: 90; Pigweed plant response rating [14]: 80; Ragweed plant response rating (0 to 100 scale) [15]: 100; Ragweed plant response rating [15]: 90; Wheat plant response rating (0 to 100 scale) [16]: 50; Wheat plant response rating [16]: 0; Plant response rating, Barnyardgrass (0 to 100 scale, 0 is no effect, 100 is complete control) [17]: 0; Plant response rating, Ducksalad (0 to 100 scale, 0 is no effect, 100 is complete control) [18]: 0; Plant response rating, Rice (0 to 100 scale, 0 is no effect, 100 is complete control) [19]: 0; Plant response rating, Sedge, Umbrella (0 to 100 scale, 0 is no effect, 100 is complete control) [20]: 0 |
